{
  "source": "patent US7893284B2",
  "about": "(Sterix Limited, priority 2004, dated 2011)",
  "key": {"[1]": {"tested_on": "MCF-7 Breast Cancer Cells", "test": "Flow cytometric cell cycle analysis, MCF-7", "assay_type": "cell-based", "conditions": "500 nM; for G2/M arrest (cells in G2/M): 8 h, control 16%; for cells G2/M arrested: control 28%", "description": "Flow cytometric cell cycle analysis was performed on 40% confluent populations of MCF-7s with 500 nM of compound."}, "[2]": {"tested_on": "microvessel/tubule formation", "test": "Inhibition of microvessel formation (image analysis, VEGF stimulated)", "assay_type": "cell-based", "conditions": "2 ng/ml VEGF", "description": "The effects of drugs on tubule formation (measured as a marker of their anti-angiogenic potential) was assessed using an Angiogenesis kit (TCS-Cellworks Ltd (Bucks, UK). For this, human umbilical vein endothelial cells (HUVECs) were cultured in a 24-well plate within a matrix of human diploid fibroblasts of dermal origin. The co-cultured cells were incubated throughout the experiment at 37° C. under 5% CO2 in a humidified incubator. On day 1, the culture medium was removed and replaced with medium containing the drugs under investigation. On days 4, 7 and 9, the medium was replaced with fresh medium containing the drugs under investigation. On day 11, the cells were washed with PBS and 70% ethanol (1 ml) added to each well for 30 min to fix the cells. After fixation, the cells were washed with blocking buffer (1 ml PBS+1% bovine serum albumin, Sigma, UK) and stained with either von Willebrand's factor or CD31. The extent of tubule formation was quantified by manual scoring or by computer analysis. Images were captured using a Kodak DC120 digital camera. In addition, details of changes in tubule formation induced by drugs were also recorded by high definition scanning of plates with some of the scans being presented as Photoshop processed images.\nIn each case the calibration was 1.0 pixels and the image area was 3211216. VEGF is vascular endothelial growth factor."}, "Tubulin": {"tested_on": "Tubulin", "test": "Inhibition of taxol-induced microtubule polymerization (turbidity at 350 nm)", "assay_type": "biochemical", "conditions": "20 μM, tubulin 1 mg/ml, FIG. 3", "description": "The ability of drugs to inhibit taxol-induced polymerisation of tubulin was measured by turbidity at 350 nm. Tubulin (Cryoskeleton Inc., Denver, Colo.), at a final concentration of 1 mg/ml was incubated at 32° C. in G-PEM buffer [80 mM piperazine-N,N′-bis (2-ethane sulfonic acid) sequisodium salt, 1 mM MgCl2, 1 mM EGTA and 1 mM GTP (pH 6.8)] in the presence of taxol with or without estrone derivatives [20 μM].\nSTX641 is thought to act as an anti-microtubule agent, i.e. to disrupt microtubule function. To show this, tubulin was incubated in the presence of taxol (a compound known to promote tubulin polymerisation). Taxol induced efficient in vitro microtubule assembly as reflected in the increase in turbidity as measured at 350 nm."}, "[3]": {"tested_on": "A2780 Ovarian Cancer Cells", "test": "Cell cycle arrest and annexin V FACs analysis, A2780", "assay_type": "cell-based", "conditions": "1 μM, FIG. 12", "source_text": "For controls, there is no cell surface expression as indicated by a lack of a peak in the M2 region."}, "[4]": {"tested_on": "A2780 Ovarian Cancer Cells", "test": "A2780 cell number study with reversibility", "assay_type": "cell-based", "conditions": "0.5 uM; for Cell Number Day 0: Day 0 (start); for Cell Number Day 0 (reversibility ®) / Cell Number Day 3 (reversibility ®) / Cell Number Day 6 (reversibility ®): drug removed on day 3; for Cell Number Day 6: Day 6, drug continued", "description": "A2780 Ovarian Cancer Cells; Three day study, cell number\nSTX 641® and STX 140® signify that the reversibility of the drug-induced effects of STX 641 and STX140 respectively were studied. For these studies the drug was removed on day 3, cells were washed with PBS, and then the culture medium was added."}, "Human Dermal Fibroblasts": {"tested_on": "Human Dermal Fibroblasts", "test": "96 well plate MTS proliferation assay, Human Dermal Fibroblasts", "assay_type": "cell-based", "conditions": "Fibroblast, read-out: mean inhibition of three wells +/-Sds", "source_text": "Human Dermal Fibroblasts; 96 well plate MTS proliferation assay, mean inhibition of three wells +/−Sds."}, "[5]": {"tested_on": "Human Umbilical Vein Cells", "test": "96 well plate MTS proliferation assay, Human Umbilical Vein Cells", "assay_type": "cell-based", "conditions": "read-out: mean inhibition of three wells +/-Sds", "source_text": "Human Umbilical Vein Cells; 96 well plate MTS proliferation assay, mean inhibition of three wells +/−Sds."}},
  "note": "Several values for one entry are separate records, joined by “and”; a condition that tells them apart may be missing. Identical values can stand only once.",
  "data": [
    {"smiles": "COc1cc2c(cc1OS(N)(=O)=O)CCC1C2CC[C@@]2(C)C1CC[C@@H]2CC#N", "note": "(stereo in doubt) [Compound 33, Sulfamic acid 17-cyanomethyl-2-methoxy-13-methyl-7,8,9,11,12,13,14,15,16,17-decahydro-6H-cyclopenta[a]phenanthren-3-yl ester]", "values": [
      {"measurement": "G2/M arrest (cells in G2/M)", "setting": "[1]", "value": 27, "unit": "%"},
      {"measurement": "cells G2/M arrested", "setting": "[1]; 24 h", "value": 68, "unit": "%"},
      {"measurement": "S-phase population", "setting": "[1]; 24 h, decrease from 30%", "value": 9, "unit": "%"},
      {"measurement": "G1 population", "setting": "[1]; 24 h, decrease from 37%", "value": 15, "unit": "%"},
      {"measurement": "G2/M arrest", "setting": "[1]; 48 h", "value": "still G2/M-arrested"},
      {"measurement": "apoptotic sub-G1 population", "setting": "[1]; 48 h", "value": "no significant increase"},
      {"measurement": "Field Area", "setting": "[2]; 20 nM, listed as STX 641", "value": "593238 and 605489 and 582954"},
      {"measurement": "Mean Tubule Length", "setting": "[2]; 20 nM, listed as STX 641", "value": "49.66 and 36.11 and 36.47"},
      {"measurement": "Field Area", "setting": "[2]; 40 nM, listed as STX 641", "value": "588528 and 597370 and 591356"},
      {"measurement": "No of Junctions", "setting": "[2]; 40 nM, listed as STX 641", "value": "3 and 4"},
      {"measurement": "No of Tubules", "setting": "[2]; 40 nM, listed as STX 641", "value": "6 and 7 and 5"},
      {"measurement": "inhibition of taxol-induced polymerisation of tubulin", "setting": "Tubulin", "value": "effectively blocked tubulin assembly"},
      {"measurement": "G2/M arrest", "setting": "[3]; 24 hours", "value": "G2/M arrest"},
      {"measurement": "annexin V staining (apoptotic marker), FACs", "setting": "[3]", "value": "marked increase in staining"},
      {"measurement": "Cell Number Day 0", "setting": "[4]", "value": 1326000},
      {"measurement": "Cell Number Day 0 (reversibility ®)", "setting": "[4]", "value": 1326000},
      {"measurement": "Cell Number Day 3", "setting": "[4]", "value": 345084},
      {"measurement": "Cell Number Day 3 (reversibility ®)", "setting": "[4]", "value": 345084},
      {"measurement": "Cell Number Day 6", "setting": "[4]", "value": 78734.83},
      {"measurement": "Cell Number Day 6 (reversibility ®)", "setting": "[4]", "value": 88680}
    ]},
    {"smiles": "COc1cc2c(cc1OS(N)(=O)=O)CCC1C2CC[C@@]2(C)C1CC[C@@H]2OS(N)(=O)=O", "note": "(some centres unmarked) [STX 140, reference compound]", "values": [
      {"measurement": "G2/M arrest (cells in G2/M)", "setting": "[1]", "value": 27, "unit": "%"},
      {"measurement": "sub-G1 population (indicative of apoptosis)", "setting": "[1]; 24 h, control 2%", "value": 36, "unit": "%"},
      {"measurement": "cells G2/M arrested", "setting": "[1]; 24 h", "value": 28, "unit": "%"},
      {"measurement": "apoptotic sub-G1 population", "setting": "[1]; 48 h", "value": "increasing population of sub-G1 cells"},
      {"measurement": "Field Area", "setting": "[2]; 20 nM", "value": "749415 and 687717 and 674918"},
      {"measurement": "Mean Tubule Length", "setting": "[2]; 20 nM", "value": "117.48 and 111.59 and 89.04"},
      {"measurement": "No of Junctions", "setting": "[2]; 20 nM", "value": "25 and 22 and 26"},
      {"measurement": "No of Tubules", "setting": "[2]; 20 nM", "value": "115 and 94 and 92"},
      {"measurement": "Total Tubule Length", "setting": "[2]; 20 nM", "value": "13509.76 and 10489.22 and 8191.48"},
      {"measurement": "Field Area", "setting": "[2]; 40 nM", "value": "627527 and 619251 and 638786"},
      {"measurement": "Mean Tubule Length", "setting": "[2]; 40 nM", "value": "82.83 and 96.29 and 80.44"},
      {"measurement": "No of Tubules", "setting": "[2]; 40 nM", "value": "37 and 40 and 45"},
      {"measurement": "Total Tubule Length", "setting": "[2]; 40 nM", "value": "3064.85 and 3851.64 and 3619.74"},
      {"measurement": "inhibition at 0.05 µM", "setting": "Human Dermal Fibroblasts; 0.05 μM", "value": 0, "unit": "%"},
      {"measurement": "inhibition at 0.1 µM", "setting": "Human Dermal Fibroblasts; 0.10 μM", "value": 2, "unit": "%"},
      {"measurement": "inhibition at 1 µM", "setting": "Human Dermal Fibroblasts; 1.00 μM", "value": 9, "unit": "%"},
      {"measurement": "inhibition at 5 µM", "setting": "Human Dermal Fibroblasts; 5.00 μM", "value": 18, "unit": "%"},
      {"measurement": "inhibition at 0.05 µM", "setting": "[5]; 0.05 μM", "value": 7, "unit": "%"},
      {"measurement": "inhibition at 0.1 µM", "setting": "[5]; 0.10 μM", "value": 18, "unit": "%"},
      {"measurement": "inhibition at 1 µM", "setting": "[5]; 1.00 μM", "value": 59, "unit": "%"},
      {"measurement": "inhibition at 5 µM", "setting": "[5]; 5.00 μM", "value": 49, "unit": "%"},
      {"measurement": "Cell Number Day 0", "setting": "[4]", "value": 1326000},
      {"measurement": "Cell Number Day 0 (reversibility ®)", "setting": "[4]", "value": 1326000},
      {"measurement": "Cell Number Day 3", "setting": "[4]", "value": 679663.3},
      {"measurement": "Cell Number Day 3 (reversibility ®)", "setting": "[4]", "value": 679663.3},
      {"measurement": "Cell Number Day 6", "setting": "[4]", "value": 204255.5},
      {"measurement": "Cell Number Day 6 (reversibility ®)", "setting": "[4]", "value": 462869.8}
    ]}
  ]
}
